Data as given in ChEMBL document CHEMBL1201862, “PubChem BioAssay data set” (2004).
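48-hour exposure; five concentrations; linearly interpolated endpoints. The concentration for 50% growth inhibition is given as GI50.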 The source made the active and inactive calls. Cut-off read from the data, not from the text of the source: active = GI50 up to about 1.1 µM and inactive = higher.

Assays:
Test in all cases: DTP human tumour cell line panel, 48 h
EKVX = tested on: EKVX
HCT-116 = tested on: HCT-116
SNB-75 = tested on: SNB-75
SW-620 = tested on: SW-620
SF-295 = tested on: SF-295
SK-MEL-28 = tested on: SK-MEL-28
HOP-92 = tested on: HOP-92
SNB-19 = tested on: SNB-19
IGROV-1 = tested on: IGROV-1
OVCAR-8 = tested on: OVCAR-8
CCRF-CEM = tested on: CCRF-CEM
UO-31 = tested on: UO-31
NCI-H23 = tested on: NCI-H23
SF-539 = tested on: SF-539
K562 = tested on: K562
T47D = tested on: T47D
COLO 205 = tested on: COLO 205
A549 = tested on: A549
HT-29 = tested on: HT-29
HL-60 = tested on: HL-60

Row | Structure (SMILES) | GI50 (EKVX) | GI50 (HCT-116) | GI50 (SNB-75) | GI50 (SW-620) | GI50 (SF-295) | GI50 (SK-MEL-28) | GI50 (HOP-92) | GI50 (SNB-19) | GI50 (IGROV-1) | GI50 (OVCAR-8) | GI50 (CCRF-CEM) | GI50 (UO-31) | GI50 (NCI-H23) | GI50 (SF-539) | GI50 (K562) | GI50 (T47D) | GI50 (COLO 205) | GI50 (A549) | GI50 (HT-29) | GI50 (HL-60)
1 | Cc1n[nH]c(=O)n1/N=C/c1c[nH]c2ccccc12 | 50.7 µM (inactive) | > 100 µM (inactive) | 32.9 µM (inactive) | > 100 µM (inactive) | > 100 µM (inactive) | > 100 µM (inactive) | > 100 µM (inactive) | > 100 µM (inactive) | 35.2 µM (inactive) | > 100 µM (inactive) | > 100 µM (inactive) | > 100 µM (inactive) | 80.5 µM (inactive) | > 100 µM (inactive) | > 100 µM (inactive) | > 100 µM (inactive) | > 100 µM (inactive) | > 100 µM (inactive) |  | 
2 | COc1ccc(N(CC(=O)O)N=O)cc1 | > 100 µM (inactive) | > 100 µM (inactive) |  | > 100 µM (inactive) | > 100 µM (inactive) | > 100 µM (inactive) | > 100 µM (inactive) | > 100 µM (inactive) | > 100 µM (inactive) | > 100 µM (inactive) | > 100 µM (inactive) | > 100 µM (inactive) | > 100 µM (inactive) | > 100 µM (inactive) | > 100 µM (inactive) | > 100 µM (inactive) | > 100 µM (inactive) | > 100 µM (inactive) | > 100 µM (inactive) | > 100 µM (inactive)
3 | Cc1ccc(/N=N/C(=N/c2ccccc2)c2ccc(N(CCC#N)CCC#N)cc2)cc1 | 30.6 µM (inactive) | 32.9 µM (inactive) | 31.1 µM (inactive) | 45.6 µM (inactive) | 27.2 µM (inactive) | 39.8 µM (inactive) | 22 µM (inactive) | 37.5 µM (inactive) | 20.3 µM (inactive) | 26.1 µM (inactive) | 35.6 µM (inactive) | 60.3 µM (inactive) | 18.3 µM (inactive) | 28.8 µM (inactive) | 47.3 µM (inactive) | 23.7 µM (inactive) | 21.7 µM (inactive) | 26.7 µM (inactive) | 30.9 µM (inactive) | 
4 | CCOC(=O)/C(C(=O)Nc1ccc(F)cc1)=C(/N)N1CCOCC1 | > 100 µM (inactive) | > 100 µM (inactive) | > 100 µM (inactive) | > 100 µM (inactive) | > 100 µM (inactive) | > 100 µM (inactive) |  | > 100 µM (inactive) | > 100 µM (inactive) | > 100 µM (inactive) | > 100 µM (inactive) |  | > 100 µM (inactive) |  | > 100 µM (inactive) | > 100 µM (inactive) | > 100 µM (inactive) | > 100 µM (inactive) | > 100 µM (inactive) | > 100 µM (inactive)
5 | CC(=O)Oc1ccc(-c2c(OC(C)=O)c(OC(C)=O)c(-c3ccc(OC(C)=O)c(OC(C)=O)c3)c(OC(C)=O)c2OC(C)=O)cc1 | 0.553 µM (active) | 18.8 µM (inactive) | 13.6 µM (inactive) | 14.9 µM (inactive) | 6.03 µM (inactive) | 14.8 µM (inactive) |  | 15.8 µM (inactive) | 15.5 µM (inactive) | 14.6 µM (inactive) | 10.7 µM (inactive) | 15.5 µM (inactive) | 19 µM (inactive) | 18.2 µM (inactive) | 21.5 µM (inactive) | 10.6 µM (inactive) | 17.7 µM (inactive) | 17.8 µM (inactive) | 18.2 µM (inactive) | 22.9 µM (inactive)
6 | N[C@H](CCC(=O)NCP(=O)(O)O)C(=O)O | > 100 µM (inactive) | > 100 µM (inactive) |  | > 100 µM (inactive) | 5.33 µM (inactive) | > 100 µM (inactive) |  | > 100 µM (inactive) | > 100 µM (inactive) | > 100 µM (inactive) |  | > 100 µM (inactive) | > 100 µM (inactive) | > 100 µM (inactive) | > 100 µM (inactive) | > 100 µM (inactive) | > 100 µM (inactive) | > 100 µM (inactive) | > 100 µM (inactive) | > 100 µM (inactive)
7 | O=C(/C=C/C(=O)N1CCCC1)N1CCCC1 | > 100 µM (inactive) | > 100 µM (inactive) |  | > 100 µM (inactive) | > 100 µM (inactive) | > 100 µM (inactive) | > 100 µM (inactive) | > 100 µM (inactive) | > 100 µM (inactive) | > 100 µM (inactive) | > 100 µM (inactive) | > 100 µM (inactive) | > 100 µM (inactive) | > 100 µM (inactive) | > 100 µM (inactive) | > 100 µM (inactive) | > 100 µM (inactive) | > 100 µM (inactive) | > 100 µM (inactive) | > 100 µM (inactive)
8 | COC(=O)Nc1cc(OCCCOC(C)=O)c2[nH]c(C(=O)OC)cc2c1C[C@H](O)CO | 72.1 µM (inactive) | > 100 µM (inactive) |  | > 100 µM (inactive) | > 100 µM (inactive) | > 100 µM (inactive) | 11.1 µM (inactive) | > 100 µM (inactive) | 90.4 µM (inactive) | > 100 µM (inactive) | > 100 µM (inactive) | > 100 µM (inactive) | > 100 µM (inactive) | > 100 µM (inactive) |  | > 100 µM (inactive) | > 100 µM (inactive) | > 100 µM (inactive) | > 100 µM (inactive) | > 100 µM (inactive)
9 | COC1(OC)C[C@H](C)[C@@]23O[C@]24c2cc(O)c5c(c2N[C@H]3C#C/C=C\C#C[C@]14O)C(=O)c1ccccc1C5=O | 0.0286 µM (active) | 0.005 µM (active) | 0.005 µM (active) | 0.005 µM (active) | 0.005 µM (active) | 0.00775 µM (active) | 0.00107 µM (active) | 0.005 µM (active) | 0.0148 µM (active) | 0.005 µM (active) | < 0.001 µM (active) | 0.005 µM (active) | 0.005 µM (active) |  | 0.005 µM (active) | 0.005 µM (active) | 0.005 µM (active) | 0.005 µM (active) | 0.00655 µM (active) | 
10 | O=C1CC(c2ccc(O)cc2)C2(O1)C(=O)OC(C(O)CO)C2O (stereo unspecified) | > 100 µM (inactive) | > 100 µM (inactive) | > 100 µM (inactive) | > 100 µM (inactive) | > 100 µM (inactive) | > 100 µM (inactive) |  | > 100 µM (inactive) | > 100 µM (inactive) | > 100 µM (inactive) | > 100 µM (inactive) | > 100 µM (inactive) | > 100 µM (inactive) | > 100 µM (inactive) | > 100 µM (inactive) | > 100 µM (inactive) | > 100 µM (inactive) |  | > 100 µM (inactive) | > 100 µM (inactive)
11 | COC(=O)[C@]1(C)CCC[C@@]2(C)C1CC[C@@]13C=C(C(C)C)[C@@H](CC1=O)CC23 (stereo partly specified) | 27.4 µM (inactive) | 20.4 µM (inactive) | 59.7 µM (inactive) | 27.3 µM (inactive) | 30.6 µM (inactive) | 41.3 µM (inactive) |  | 25.8 µM (inactive) | 35.2 µM (inactive) | 29 µM (inactive) | 17.7 µM (inactive) | 21.7 µM (inactive) | 34 µM (inactive) | 20.9 µM (inactive) | 13.8 µM (inactive) | 32.4 µM (inactive) | > 10 µM (inactive) | 29.2 µM (inactive) | 18.2 µM (inactive) | 19.8 µM (inactive)
12 | COc1ccc2sc(-n3nc4ccccc4c3Nc3nc4ccc(OC)cc4s3)nc2c1 | 3.52 µM (inactive) | 1.8 µM (inactive) | 3 µM (inactive) | 7.5 µM (inactive) | 3.29 µM (inactive) | 7.67 µM (inactive) | 3.12 µM (inactive) | 2.33 µM (inactive) | 2.02 µM (inactive) | 1.29 µM (inactive) | 96.4 µM (inactive) | 7.16 µM (inactive) | 1.73 µM (inactive) | 0.92 µM (active) | 1.59 µM (inactive) | 1 µM (active) | 14.9 µM (inactive) | 3.77 µM (inactive) | 3.59 µM (inactive) | 
13 | COc1cc(/C=C2/C[C@H]3[C@@H]4CC=C5C[C@@H](OC(C)=O)CC[C@]5(C)[C@H]4CC[C@]3(C)NC2=O)cc(OC)c1OC | 26.6 µM (inactive) | 26.4 µM (inactive) | 22.5 µM (inactive) | 54 µM (inactive) | 26.8 µM (inactive) | 26.2 µM (inactive) | 24.6 µM (inactive) | 15.9 µM (inactive) | 30 µM (inactive) | 27.8 µM (inactive) | 49.4 µM (inactive) | 18.1 µM (inactive) | 23.9 µM (inactive) | 13.1 µM (inactive) | 45.3 µM (inactive) | 22 µM (inactive) | > 100 µM (inactive) | 18 µM (inactive) | 38.7 µM (inactive) | 
14 | CC(=O)OCc1ccc2oc(=O)c(C(=O)Oc3cccc(Cl)c3)cc2c1 | > 100 µM (inactive) | 21.2 µM (inactive) | 37.8 µM (inactive) | 56.4 µM (inactive) | > 100 µM (inactive) | 83 µM (inactive) | 20.6 µM (inactive) | 83 µM (inactive) | 63.5 µM (inactive) | > 100 µM (inactive) | > 100 µM (inactive) | 22.1 µM (inactive) | 74.6 µM (inactive) | 46.2 µM (inactive) | 23.9 µM (inactive) | 20.6 µM (inactive) | 30.3 µM (inactive) | > 100 µM (inactive) | 27.5 µM (inactive) | 
15 | O=[N+]([O-])/C(C(Cl)=C(Cl)Cl)=C1/OCCS1 | 32.1 µM (inactive) | 18 µM (inactive) | 13.9 µM (inactive) |  | 33.9 µM (inactive) | 31.8 µM (inactive) |  | 50.4 µM (inactive) | 24.4 µM (inactive) | 16.8 µM (inactive) | 15.9 µM (inactive) | 23.1 µM (inactive) | 23.4 µM (inactive) | 21.3 µM (inactive) | 30 µM (inactive) | 37.2 µM (inactive) | 19.8 µM (inactive) | 23.3 µM (inactive) | 27.5 µM (inactive) | 16.9 µM (inactive)
